Laboratory results: PubChem BioAssay (NCI)
Where “and” joins values, the source holds several entries; their conditions need not be identical. Equal values may be shown once.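 Following 48 hours of exposure in 96-well plates, responses at five concentrations were used to interpolate endpoints linearly. Here, GI50 denotes the concentration required for 50% inhibition of growth. Definition used: TGI = concentration required for complete inhibition of growth.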

Assays:
Experiment in all cases: growth of human tumour cells (NCI), 48 h
[1] = test system: U251 CNS
[2] = test system: HOP-92 NSCLC
[3] = test system: 786-0 renal
[4] = test system: HCC-2998 colon
[5] = test system: HL-60(TB) leukemia
[6] = test system: SK-MEL-28 melanoma
[7] = test system: OVCAR-5 ovarian
[8] = test system: DU-145 prostate
[9] = test system: COLO 205 colon
[10] = test system: CAKI-1 renal
[11] = test system: T-47D breast
[12] = test system: SK-MEL-5 melanoma
[13] = test system: RXF 393 renal
[14] = test system: OVCAR-4 ovarian
[15] = test system: NCI-H522 lung
[16] = test system: M14 melanoma
[17] = test system: RPMI-8226 leukemia
[18] = test system: OVCAR-3 ovarian
[19] = test system: MDA-MB-231 breast
[20] = test system: MDA-MB-435
[21] = test system: UACC-62 melanoma
[22] = test system: SK-MEL-2 melanoma
[23] = test system: SR leukemia
[24] = test system: SF-539 CNS
[25] = test system: UO-31 renal
[26] = test system: SW-620 colon
[27] = test system: HT29 colon
[28] = test system: OVCAR-8 ovarian
[29] = test system: SF-295 CNS
[30] = test system: LOX IMVI melanoma
[31] = test system: IGROV1 ovarian
[32] = test system: BT-549 breast
[33] = test system: EKVX NSCLC
[34] = test system: NCI-H226 lung
[35] = test system: SF-268 CNS
[36] = test system: NCI-H460 lung
[37] = test system: MOLT-4 leukemia
[38] = test system: SNB-75 CNS
[39] = test system: SNB-19 CNS
[40] = test system: ACHN renal
[41] = test system: HOP-62 NSCLC
[42] = test system: NCI-H23 lung
[43] = test system: SN12C renal
[44] = test system: A549 NSCLC
[45] = test system: MCF7 breast
[46] = test system: HCT-15 colon
[47] = test system: HCT-116 colon
[48] = test system: PC-3 prostate
[49] = test system: NCI/ADR-RES ovarian
[50] = test system: UACC-257 melanoma
[51] = test system: SK-OV-3 ovarian
[52] = test system: K-562 leukemia
[53] = test system: KM12 colon

Cc1cc2c(cc1C)[n+](=O)c(C(=O)c1cccs1)c(C(F)(F)F)n2[O-]
GI50 [1]: 6.83 µM and 3.96 µM
TGI [1]: 25.5 µM and 75.8 µM
GI50 [2]: 1.53 µM and 5.5 µM
TGI [2]: 10.6 µM and 37.9 µM
GI50 [3]: 23 µM and 6.76 µM
TGI [3]: 50 µM and 24.5 µM
GI50 [4]: 6.86 µM and 2.08 µM
TGI [4]: 20.9 µM and 5.24 µM
GI50 [5]: 1.96 µM and 2.54 µM
TGI [5]: 11 µM and 28.8 µM
GI50 [6]: 8.83 µM and 12.3 µM
TGI [6]: 28.9 µM and 46.2 µM
GI50 [7]: 16.7 µM and 4.47 µM
TGI [7]: 50 µM and 17.4 µM
GI50 [8]: 1.05 µM and 2.15 µM
TGI [8]: 4.12 µM and 6.87 µM
GI50 [9]: 5.36 µM and 4.94 µM
TGI [9]: 41.1 µM and 22.6 µM
GI50 [10]: 2.32 µM and 2.48 µM
TGI [10]: 9.59 µM and 13.2 µM
GI50 [11]: 7.74 µM and 4.47 µM
TGI [11]: 50 µM and 29.8 µM
GI50 [12]: 0.724 µM and 1.3 µM
TGI [12]: 1.78 µM and 2.8 µM
GI50 [13]: 19.7 µM and 9.21 µM
TGI [13]: 50 µM and 29.3 µM
GI50 [14]: 6.44 µM and 3.56 µM
TGI [14]: 50 µM and 10.7 µM
GI50 [15]: 2.29 µM and 2.17 µM
TGI [15]: 15.5 µM and 8.26 µM
GI50 [16]: 14.6 µM and 13.5 µM
TGI [16]: 50 µM and > 100 µM
GI50 [17]: 1.04 µM and 2.84 µM
TGI [17]: 8.01 µM and 30.6 µM
GI50 [18]: 1.44 µM and 0.744 µM
TGI [18]: 9.78 µM and 4.34 µM
GI50 [19]: 1.1 µM and 1.67 µM
TGI [19]: 8.54 µM and 8 µM
GI50 [20]: 4.45 µM and 4.89 µM
TGI [20]: 16 µM and 21.4 µM
GI50 [21]: 3.02 µM and 6.56 µM
TGI [21]: 12.8 µM and 21.7 µM
GI50 [22]: 15.8 µM and 8.02 µM
TGI [22]: 50 µM and 26.3 µM
GI50 [23]: 0.924 µM
TGI [23]: 8.11 µM
GI50 [24]: 1.39 µM
TGI [24]: 7.69 µM
GI50 [25]: 1.49 µM and 1.07 µM
TGI [25]: 5.83 µM and 2.34 µM
GI50 [26]: 2.48 µM and 11.5 µM
TGI [26]: 50 µM and 50.6 µM
GI50 [27]: 9.97 µM
TGI [27]: 50 µM
GI50 [28]: 1.67 µM and 2.02 µM
TGI [28]: 50 µM and 6.61 µM
GI50 [29]: 0.603 µM and 2.89 µM
TGI [29]: 3.34 µM and 12.9 µM
TGI [30]: 12.3 µM and 13.2 µM
GI50 [31]: 0.683 µM
TGI [31]: 5.31 µM
GI50 [32]: 0.565 µM
TGI [32]: 2.53 µM
GI50 [33]: 0.915 µM and 1.17 µM
TGI [33]: 3.22 µM and 4.15 µM
GI50 [34]: 4.06 µM
TGI [34]: 50 µM
GI50 [35]: 1.12 µM and 0.978 µM
TGI [35]: 4.11 µM and 3.61 µM
GI50 [36]: 1.19 µM and 1.86 µM
TGI [36]: 6.35 µM and 16.9 µM
GI50 [37]: 4.39 µM
TGI [37]: 50 µM
GI50 [38]: 1.02 µM
TGI [38]: 18.7 µM
GI50 [39]: 4.61 µM and 7.76 µM
TGI [39]: 50 µM and 52 µM
GI50 [40]: 7.17 µM and 2.75 µM
TGI [40]: 14.9 µM and 17.4 µM
GI50 [41]: 14.6 µM and 2.68 µM
TGI [41]: 50 µM
GI50 [42]: 6.25 µM
TGI [42]: 19.7 µM
GI50 [43]: 1.31 µM
TGI [43]: 6.59 µM
GI50 [44]: 3.27 µM and 5.68 µM
TGI [44]: 50 µM and 21.5 µM
GI50 [45]: 2.31 µM
TGI [45]: 12.6 µM
GI50 [46]: 5.27 µM and 3.56 µM
TGI [46]: 26 µM and 56 µM
GI50 [47]: 5.2 µM
TGI [47]: 26.7 µM
GI50 [48]: 0.827 µM and 7.09 µM
GI50 [49]: 6.4 µM and 3.28 µM
TGI [49]: 18.6 µM and 27.2 µM
GI50 [50]: 2.4 µM and 2.61 µM
TGI [50]: 38 µM and 6.55 µM
GI50 [51]: 7.95 µM and 10.3 µM
TGI [51]: 50 µM and 49 µM
GI50 [52]: 1.43 µM and 2.81 µM
TGI [52]: 50 µM and 16.3 µM
GI50 [53]: 5.38 µM and 10.3 µM
TGI [53]: 12.6 µM and 51.9 µM
